Data: patent US9540325B2, “N1-cyclic amine-N5-substituted phenyl biguanide derivatives, methods of preparing the same and pharmaceutical composition comprising the same” (Immunomet Therapeutics, Inc., priority 2011, dated 2017)
Where a name gives a salt, the structure may show the parent alone.

Tests used:
[1] = tested on: MCF7 cells (breast cancer stem cell, mammosphere); test: Measurement of effect of inhibiting mammosphere formation; assay type: cell-based, human; details: MCF7, 8 days; for Number of Mammospheres: size 50 um or more
Description: The cancer stem cells refer to cancer cells that have self-regeneration or differentiation capacity which is characteristically innate to stem cells. Here, the cancer stem cells show resistance to conventional anticancer therapy and poor prognosis. Therefore, the biguanide derivative has an effect of inhibiting cancer recurrence by inhibiting formation and proliferation of cancer stem cells, especially, breast cancer stem cells (mammosphere). Accordingly, the effect of the biguanide derivative of inhibiting breast cancer stem cell (mammosphere) formation was measured in an MCF7 cell line derived from human breast cancer forming mammospheres, and simple experimental methods are described, as follows.
MCF7 cells derived from human breast cancer were cultured (culture temperature: 37° C., pH: 7.0 to 7.4) in a DMEM medium supplemented with 10% (v/v) fetal bovine serum (commercially available from Gibco Life Technologies (US)) so that the MCF7 cells could grow to approximately 80% confluency and used in an experiment to determine an ability to form mammospheres. After MCF7 cells were made to single cells and the number of cell was counted, MCF7 cells were put in to a 24-well plate at 2,000 cells/well. […] Also, a culture media for forming mammospheres was prepared so that a serum-free DMEM/F12 medium could include 2% B27 (commercially available from Invitrogen), 20 ng/ml EGF (commercially available from Sigma), 5 μg/ml insulin (commercially available from Sigma) and 1 μg/ml hydrocortisone (commercially available from Sigma). Cells were cultured in a CO2 incubator for 24 hours and treated with each of the compounds synthesized in the examples at contents of 0.1 μM, 1 μM, 5 μM and 10 μM. Then, the cultured cells were added to the culture media for forming mammospheres so that a final volume of the culture broth could be adjusted to 1 ml. The cells were treated with the same concentrations of phenformin hydrochloride as the control and cultured in a CO2 incubator for 8 days. Thereafter, the mammosphere-forming efficiency and size of the cells were observed. After 8 days, the number of mammospheres having a size of 50 um or more was determined to calculate the mammosphere-forming efficiency (MFE (%)). The MFE (%) is calculated according to the following Equation 1.
When the cells were cultured for 8 days, MFE (%) of the cells on a plate treated with the phenformin hydrochloride and the compounds synthesized in the examples was compared with MFE (%) of the cells on a plate that was not treated with the compounds. The results are listed as the mammosphere formation inhibition rate (%) in the following Table 4, and the mammosphere-forming efficiencies of the respective compounds are shown in FIG. 1.

Snail = test: EMT inhibitory effect by inhibition of Snail expression (immunoblotting) in MCF7 cells; assay type: cell-based, human; details: MCF7, 48 hours, untreated control = 100%
Protocol: Cells undergoing EMT owing to various cytokines and growth factors can acquire motility and thus move a distance to form tumors in new tissues. Therefore, the metastasis of cancer cells can be inhibited by controlling expression of EMT-related transcription factors to hinder EMT. Based on these facts, the activities of biguanide derivatives that inhibit Snail expression, which is a transcription factor inducing EMT in the MCF7 cell line derived from human breast cancer, were measured and simple experimental methods are described, as follows.
MCF7 cells derived from human breast cancer (commercially available from Korean Cell Line Bank) were cultured in a DMEM medium supplemented with 10% (v/v) fetal bovine serum (commercially available from Gibco Life Technologies (US)), put into a 6-well plate so that the number of cultured cells could amount to approximately 5×10^5 cells per well, and then incubated in an incubator supplied with 5% CO2 (culture temperature: 37° C., pH: 7.0 to 7.4). The culture media were treated with phenformin hydrochloride and the compounds synthesized in the examples at contents of 1 μM and 10 μM, respectively, and then incubated for 48 hours. Metformin hydrochloride was used as the control, and the cells were treated with 1 mM and 10 mM metformin hydrochloride. After 48 hours, the cells were lysed in a cell lysis buffer containing 10 mM Tris HCl (pH7.4), 100 mM NaCl, 1 mM EDTA, 1 mM EGTA, 1 mM NaF, 20 mM Na4P2O7, 2 mM Na3VO4, 1% TritonX-100, 10% glycerol, 0.5% deoxycholate and 1 mM PMSF. Then, 25 μg of the cell lysate was electrophoresized in an SDS-PAGE gel, and then transferred to a […] membrane (commercially available from Amersham Life Science). The membrane reacted with rat monoclonal anti-human Snail (commercially available from Cell signaling Technology) or mouse monoclonal anti-β-actin (commercially available from Santa cruz Biotechnology), and unbound antibodies were removed. In this case, anti-β-actin was used as the antibody to ensure that the amount of proteins loaded into the SDS-PAGE gel is identical. The membrane was reacted again with a secondary antibody, anti-rat IgG (commercially available from Cell signaling Technology) or anti-mouse IgG (commercially available from Santa Cruz Biotechnology). Finally, the antibody bound to the membrane was detected using an ECL Plus system (commercially available from Amersham Life Science). Also, the expression level of Snail with respect to β-actin was analyzed using a Scion image analysis program. Here, when it was assumed that the expression level of the untreated control was 100%, the expression level of the Snail by treatment with the compounds synthesized in the examples was indicated as a percentage (%).

In the case of `[H]/N=C(/N)N/C(=N/[H])NCCc1ccccc1` [Phenformin hydrochloride, reference compound], the “MFE (%) (mammosphere-forming efficiency)” value ([1]; 0.1 μM) is reported as 4.2%, the “Number of Mammospheres” value ([1]; 0.1 μM) is reported as 84 ± 2.8 and the “MFE (%) (mammosphere-forming efficiency)” value ([1]; 1 μM) is reported as 3.9%. For the same molecule, the “Number of Mammospheres” value ([1]; 1 μM) was 79 ± 0.7, the “MFE (%) (mammosphere-forming efficiency)” value ([1]; 5 μM) was 5.2% and the “Number of Mammospheres” value ([1]; 5 μM) was 103 ± 1.4. For the same molecule, the “MFE (%) (mammosphere-forming efficiency)” value ([1]; 10 μM) was 5.8%, the “Number of Mammospheres” value ([1]; 10 μM) was 116 ± 19.1 and the inhibition at 0.1 µM ([1]; Homo sapiens, 192 h, 0.1 μM, vs untreated, read-out: Mammosphere formation inhibition rate (%)) was 18.4%. The inhibition at 1 µM ([1]; Homo sapiens, 192 h, 1 μM, vs untreated, read-out: Mammosphere formation inhibition rate (%)) was 23.8%, the inhibition at 5 µM ([1]; Homo sapiens, 192 h, 5 μM, vs untreated, read-out: Mammosphere formation inhibition rate (%)) was 0% and the inhibition at 10 µM ([1]; Homo sapiens, 192 h, 10 μM, vs untreated, read-out: Mammosphere formation inhibition rate (%)) was -12.1%. For the same molecule, the “Snail Expression Rate (%)” value (Snail; 1 μM) was 117.6% and the “Snail Expression Rate (%)” value (Snail; 10 μM) was 53.8%.
